# Results as given in patent US12605390B2, “Treatment of cancer and inhibition of metastasis” (Celex Oncology Innovations Limited, priority 2017, dated 2026).
# Read-outs that look alike come from different tables or passages of the source.
# Columns and labels:
# MDA-MB-231 cells [1] = experiment: MTT proliferation assay; format: cell-based, human; conditions: 48 hours; for effect on cell proliferation versus negative controls: 10 μM, hypoxic and normoxic conditions
# Method: Cells were plated at 2×10^4 cells/ml in 24-well plates (Becton-Dickinson) and allowed to settle overnight. The cells were then treated for the required time of incubation (24 hours+), with medium changes every 24 hours. At the end of the treatment, the medium was removed, and this was followed by the colorimetric 3-[4,5-dimethylthiazol-2-yl]-2,5-diphenyltetrazolium bromide ([…]) assay (Grimes et al., 1995). Briefly, 0.1 ml MU (5 mg/ml made up in the growth medium) and 0.4 ml growth medium was added in each well and the plate was incubated for 3-4 hours at 37° C. The medium was then removed from the chambers and replaced with 0.5 ml dimethyl sulfoxide (DMSO) and 0.063 ml glycine buffer (0.1 M glycine and 0.1 M NaCl; pH 10.5). Absorbance at 570 nm was determined 15 minutes after the addition of the glycine buffer. Results were calculated as means of nine repeats of each of the treatment vs. control spectrophotometer readings from individual invasion wells.
# Proliferation was indirectly measured using MTT (3-(4,5-dimethylthiazolyl-2)-2,5-diphenyltetrazolium). In principle, MTT is taken up and processed by metabolically active cells, which produce formazan as a by-product. Formazan is a purple dye which can be quantified on a spectrophotometer, providing a link between absorbance readings (570 nm) and cell number.
# Cells were plated in 24-well plates at a density of 2×10^4 cells per well and pre-treated with 1 ml of the respective drug solutions (see FIG. 5.) for 48 hours in hypoxia and normoxia. 0.1 ml of MU (1 mg/ml) diluted in 0.4 ml of media was administered to each well, followed by 4 hours of incubation in dark, normoxic conditions (MU is light—sensitive). The solution was subsequently aspirated and 0.5 ml of 99.9% DMSO was added in combination with 75 μL glycine buffer. The dye was able to dissolve in DMSO during a 15 minute—incubation on a shaking platform at 150 cycles/minute. The absorbance was read using ELX800 Universal Microplate Reader (BioTek Instruments) with the background measuring 0.04. […]
# MDA-MB-231 cells [2] = experiment: Matrigel invasion assay under hypoxia; format: cell-based, human
# Method: This assay is an extension of the transverse migration assay described above. To “invade”, the cells need both (i) to move as in the transverse migration assay and (ii) secrete a proteolytic enzyme to digest their surroundings. The ability of cells to invade neighbouring tissues by enzyme secretion was therefore assessed by using a layer of Matrigel™ (BD Biosciences) spread across the porous membrane of a Transwell® insert.
# 50 μl Matrigel™ was seeded at a 1:7 dilution (10 mg/ml stock) onto the inserts and left overnight. Prior to seeding with the cells the Matrigel™ was rehydrated using medium with no additions. This medium was removed prior to seeding the cells.
# Cells were plated in a 1-5% FBS chemotactic gradient overnight (12 hours).
# Invaded cells were fixed for 15 minutes with ice-cold methanol. […] The inserts were swabbed again and then washed in water and allowed to dry. Cells were then counted using twelve separate fields of view per insert (×200 magnification). If the difference in the average number of cells invading the two control inserts was more than 40%, the experiment was rejected.
# The matrigel solidified at 37° C. normoxia overnight and was hydrated at 37° C. normoxia for 3 hours using 0.5 ml FBS-free media. 300 μL of media containing 5% FBS was administered to the lower chamber and the same amount of media containing 1% FBS was added to the upper chamber (transwell filters). 2×10^4 cells were added to the 1% solution, allowing their invasion through the matrigel along the chemotactic gradient. Cells were left to settle and invade under hypoxic conditions overnight.
# MDA-MB-231 cells [3] = format: cell-based, human; conditions: 20 μM, 48 hours
# Method: Cells were seeded at a density of 5×10^4 cells/ml in 35 mm Falcon tissue culture dishes. After treatment with a given drug, the medium was removed and replaced with 800 μl of growth medium and 200 μl 0.4% trypan blue (Sigma, Dorset, UK) and incubated for 10 minutes in the incubator. The trypan blue was removed and the cells were washed once with 3 ml growth medium. For each treatment, cells from 30 random fields of view were counted under 100× magnification. The number of dead cells, stained blue, was counted in each field of view. The data were expressed as percentages of living cells out of the total number of cells in given fields of view. The percentages were averaged and differences between control and treatment were compared from at least three independent experiments.
# Cell viability and therefore drug toxicity was determined using the trypan blue assay. The procedure follows the principle that viable cells surrounded by an intact double membrane cannot absorb the trypan blue dye, whereas dead and fragmented cells can. […]
# The solution was subsequently replaced with 0.2 ml of 0.4% trypan blue (Sigma-Aldrich) and 0.8 ml of media. […] Cell viability was determined by counting the proportion of viable and dead cells in 30 fields of view on each dish (Zeiss Axiovert 25 phase contrast microscope, ×40 magnification).
# persistent current = target: T1, persistent current (Homo sapiens, UniProt Q14524); experiment: Patch-clamp (data not shown); format: cell-based; conditions: 10 μM
# T1 construct: transient and persistent sodium current, using the highly invasive human breast cancer cell line MDA-MB-231; endogenous in cells; host or cells: MDA-MB-231
# MDA-MB-231 cells [4] = experiment: Lateral motility (wound heal) assay; format: cell-based, human; conditions: 10 μM, hypoxic conditions
# Method: In order to determine lateral motility, a “wound-heal (“scratch”)” test was carried out, in which a scratch 504 of […] was made through the layer of cells, as shown in FIG. 5(b) which is a side sectional view of the cell culture dish. During the period of 24 hours following the formation of the scratch, the cells moved into the gap.
# 10^6 cells were plated in each 35×10 mm dish and kept in normoxic conditions to settle overnight. Each dish was marked by 15 parallel vertical lines and 3 non-overlapping horizontal lines. The media was refreshed and three wounds were made along the marked vertical lines using a 1 ml Gilson pipette tip. Floating cells were removed by 3 consecutive media washes and adherent cells were treated with 1 ml of the respective drug solution (10 μM Eleclazine/DMSO). The initial wound width (W0) was measured at 45 fixed points (where the vertical lines cross the wounds) using the graticule on a phase-contrast microscope (×10 magnification). Cells were then incubated in both normoxic and hypoxic conditions, with drug solutions being replaced every 24 hours. Wound width was measured every 12 hours and the motility of this breast cancer cell line was analysed using the “motility index” (MI=1-(Wt/W0)). A motility index of 1 accounts for complete wound closure, whereas MI=0 represents zero cell movement. […]
# neonatal Nav1.5 = experiment: Immunocytochemistry of nNav1.5 protein expression in MDA-MB-231 cells; format: cell-based, human; conditions: 10 μM, 24 hour treatment, normoxic and hypoxic conditions
# Method: Cells were pre-treated with either 10 μM Eleclazine or DMSO in both normoxic and hypoxic conditions for 24 hours. The following day, round 13 mm coverslips were placed into 24-well plates and incubated with 0.5 ml poly-L-lysine for 20 minutes. The solution was aspirated and 2×10^4 pre-treated cells were added on top of each coverslip. The wells were filled up to 0.5 ml with the respective drug solutions and cells were left to settle onto the coverslips in normoxic and hypoxic conditions overnight.
# Cells were washed with PBS and fixed by incubating coverslips with 0.5 ml 4% PFA (in PBS) for 15 minutes. Coverslips were then washed in PBS three times for 5 minutes. Half of the samples were permeabilised in 0.1% Saponin/PBS (4 minutes) followed by three 5 minute washes in PBS. Cells were blocked for 1 hour with 0.5 ml 5% BSA/PBS (pH 7.4). Coverslips were incubated with 70 μL NESOpAb (primary antibody specific for neonatal Nav1.5; 1:100 dilution) for 1 hour in a humidity chamber (room temperature). Three 5 minute PBS washes rinsed off residual NESOpAb and the secondary antibody (goat anti-rabbit IgG Alexa Fluor 568, 1:100 dilution) was administered for 1 hour in the dark. […]
# Imaging was conducted on a Zeiss axiovert 200 inverted microscope. […] The corrected total cell fluorescence was quantified using ImageJ.
# MDA-MB-231 cells [5] = conditions: 24 hours
compound,measurement,setting,value
"COc1ccccc1OCC(O)CN1CCN(CC(=O)Nc2c(C)cccc2C)CC1 (centres unmarked) [ranolazine, reference compound]",effect on cell proliferation versus negative controls,MDA-MB-231 cells [1],no significant effect
same,effect on invasiveness,"MDA-MB-231 cells [2]; 5 μM, hypoxia (1% O2), 24 h pre-incubation, invasion over 16 h",suppress invasiveness significantly
"NC1=N[C@H](O)[C@H]2[C@H]3O[C@]4(O)O[C@@H]([C@@H](O)[C@@]2(N1)[C@@H]4O)[C@]3(O)CO [TTX, tetrodotoxin, reference compound]",effect on invasiveness,MDA-MB-231 cells [2],decreases
"O=C1c2cc(-c3ccc(OC(F)(F)F)cc3)ccc2OCCN1Cc1ncccn1 [eleclazine, 4-(pyrimidin-2-ylmethyl)-7-(4-(trifluoromethoxy)phenyl)-3,4-dihydrobenzo[f][1,4]oxazepin-5(2H)-one]",effect on cell proliferation versus negative controls,MDA-MB-231 cells [1],no statistically significant difference
same,average proportion of viable cells per field of view,MDA-MB-231 cells [3],99.96%
same,effect on persistent current,persistent current,effectively blocked
same,reduction of lateral motility,MDA-MB-231 cells [4]; after 12 hours,5%
same,reduction of lateral motility,MDA-MB-231 cells [4]; after 48 hours,30%
same,"nNav1.5 protein expression, corrected total cell fluorescence (CTCF)",neonatal Nav1.5,statistically significant reduction
same,effect on invasiveness,"MDA-MB-231 cells [2]; 0.5 μM, hypoxia (1% O2), 24 h pre-incubation, invasion over 16 h",does not affect invasiveness
same,"number of cells invading, median (interquartile range)","MDA-MB-231 cells [2]; 1 μM, hypoxia (1% O2), 24 h pre-incubation, invasion over 16 h, control 175.0 (113 & 255)",131.5 (100 & 175)
same,reduction of invasiveness,"MDA-MB-231 cells [2]; 5 μM, hypoxia",approximately 50%
same,effect on invasiveness (preliminary assays),"MDA-MB-231 cells [2]; 10 μM, hypoxic conditions",drastically reduced
CC[N+](CC)(CC)CC [TEA],reduction of cell proliferation,"MDA-MB-231 cells [1]; 2 mM, positive control",approximately 50%
OO [hydrogen peroxide],"mean detachment negative pressure, change versus untreated cells",MDA-MB-231 cells [5]; 1 μM,approximately −9%
same,"mean detachment negative pressure, change versus untreated cells",MDA-MB-231 cells [5]; 10 μM,approximately −14%
same,"mean detachment negative pressure, change versus untreated cells",MDA-MB-231 cells [5]; 100 μM,approximately −20%
